“And” between values parts separate entries of the source, which are not always exact repeats. Identical values can stand only once. “Also recorded” adds a separate entry of the source. Like-named read-outs stand apart in the source and are kept apart here.
Key:
[1] = Solution‐state stability test in MH‐II broth; type: physicochemical; conditions: 512–1 µg mL^−1, 37 °C for a day, centrifuged
Procedure: Before accessing the minimal inhibitory concentration (MIC), each phenazinium derivative was subjected to a solution‐state stability test. For this experiment, each derivative was solubilized in DMSO to achieve a primary stock solution (20 mg mL^−1). This stock was further diluted in MilliQ to achieve a working stock solution (10 mg mL^−1). […] The tubes were placed in an incubator at 37 °C for a day and later centrifuged at 25 000 rpm for 25 min.

[2] = system: HaCaT keratinocytes cells; assay: In-vitro cytotoxicity test, Neutral Red uptake; type: cell-based, Human
Procedure: (§1) Method: The in-vitro cytotoxicity test assessed cell viability based on Neutral Red uptake, a dye that accumulates in lysosomes and decreases in response to membrane damage. HaCaT keratinocytes were cultured in DMEM with 10% calf serum and incubated at 37°C, 5% CO₂. Cells were seeded in 96-well plates, treated with eight concentrations of the 5a4, and incubated for 24 hours. After washing, cells were exposed to Neutral Red medium for 3 hours, followed by washing and destaining. Optical density (OD540) was measured using a fluorescence reader, and IC50 values were calculated using Phototox Version 2.0, comparing treated wells to untreated controls.^[10]

[3] = In-vitro cytotoxicity test, Neutral Red uptake; type: cell-based, Human; conditions: human, HaCaT keratinocytes, 24 hours, read-out: Cell viability (% as compared to the negative control), replicates
Procedure: as §1

[4] = system: S. epidermidis strains
[5] = system: Staphylococcus aureus efflux mutants and clinical strains
[6] = system: SA 1199‐B (norA overexpressing); assay: microbe, parasite or virus in culture; type: cell-based, Staphylococcus aureus; conditions: from Table 1
[7] = system: HaCaT keratinocytes cells; assay: Micronucleus assay; type: cell-based, Human
[8] = Fluorescence intensity measurement of phenazinium derivatives; type: physicochemical; conditions: 1 µg mL^−1
Procedure: A stock solution of synthesized phenazinium compounds (10 mg mL^-1) was prepared in DMSO solvent. […] An aliquot (100 μL) of this working stock was then added to the black flat bottomed, half-area, 96-well microplates (CELLSTAR, Greiner Bio-One, France). The plate was then placed on a fluorescence spectrometer (Tecan, Infinite […], Lyon, France) and scanned for emission spectra (560-800 nm) at a constant excitation […].

[9] = system: Staphylococcus aureus ATCC 25923 (Reference, basal); assay: MIC, broth microdilution (CLSI); type: cell-based; conditions: ATCC25923
[10] = system: SA 1199 (Wild‐type, basal); assay: MIC, broth microdilution (CLSI); type: cell-based; conditions: Staphylococcus aureus
[11] = 0.025 µg/ml, with UVA/visible Irradiation
[12] = 0.05 µg/ml, with UVA/visible Irradiation
[13] = 0.1 µg/ml, with UVA/visible Irradiation
[14] = 0.25 µg/ml, with UVA/visible Irradiation

## CCCCNc1ccc2nc3cc(NCCOC)c(N)cc3[n+](CCC)c2c1 [5a4]
[1]
  Solution state stability (concentration at which visible precipitation was observed): excellent solubility and stability; also recorded: Stable
[2]
  cytotoxicity on HaCaT (in words): dose‐dependent cytotoxicity
[2]; 0.00025 µg/ml, 24 hours
  Cell viability (% as compared to the negative control), replicates: 98.73% and 100.16% and 98.52%
[2]; 0.0005 µg/ml, 24 hours
  Cell viability (% as compared to the negative control), replicates: 98.86% and 96.05%
[2]; 0.001 µg/ml, 24 hours
  Cell viability (% as compared to the negative control), replicates: 86.83% and 87.15%
[2]; 0.025 µg/ml, 24 hours
  Cell viability (% as compared to the negative control), replicates: 80.96% and 90.16%
[2]; 0.05 µg/ml, 24 hours
  Cell viability (% as compared to the negative control), replicates: 71.87% and 67.22%
[2]; 0.1 µg/ml, 24 hours
  Cell viability (% as compared to the negative control), replicates: 60.91% and 61.94%
[2]; 0.25 µg/ml, 24 hours
  Cell viability (% as compared to the negative control), replicates: 43.67% and 45.37%
[2]; 0.5 µg/ml, 24 hours
  Cell viability (% as compared to the negative control), replicates: 36.42% and 39.37%
[2]; 1 µg/ml, 24 hours
  Cell viability (% as compared to the negative control), replicates: 8.29% and 13.84%
[2]; 2.5 µg/ml, 24 hours
  Cell viability (% as compared to the negative control), replicates: 7.17% and 8.13%
[2]; Homo sapiens, HaCaT, Neutral Red uptake, 24 hours, read-out: IC50 (HaCaT cell viability)
  IC50: 0.1 to 0.25 µg/mL
[3]; 0.00025 µg/ml
  viability at 24 h, 0.00025 µg/ml: > 96%
[3]; 0.0005 µg/ml
  viability at 24 h, 0.0005 µg/ml: 98.9%
[3]; 0.001 µg/ml
  viability at 24 h, 0.001 µg/ml: 87.3%
[3]; 0.025 µg/ml
  viability at 24 h, 0.025 µg/ml: 80%
[3]; 0.05 µg/ml
  viability at 24 h, 0.05 µg/ml: 66.6%
[3]; 0.1 µg/ml
  viability at 24 h, 0.1 µg/ml: 57.8%
[3]; 0.25 µg/ml
  viability at 24 h, 0.25 µg/ml: 43.4%
[3]; 0.5 µg/ml
  viability at 24 h, 0.5 µg/ml: 37.3%
[3]; 1 µg/ml
  viability at 24 h, 1 µg/ml: 11.6%
[3]; 2.5 µg/ml
  viability at 24 h, 2.5 µg/ml: ~7.91%
[4]; […]
  Efflux detection method 5a4: Negative
[4]; strain ATCC12228
  Efflux detection method 5a4: Negative
[4]; strain ATCC12228_EtBr
  Efflux detection method 5a4: Positive
[4]; strain BIOS-V24
  Efflux detection method 5a4: Negative
[4]; strain BIOS-V282
  Efflux detection method 5a4: Positive
[5]; strain ATCC25923
  Efflux detection method 5a4: Negative
[5]; strain ATCC25923_EtBr
  Efflux detection method 5a4: Positive
[5]; strain BIOS-H1
  Efflux detection method 5a4: Negative
[5]; strain BIOS-H2
  Efflux detection method 5a4: Negative
[5]; strain BIOS-H3
  Efflux detection method 5a4: Negative
[5]; strain BIOS-H5
  Efflux detection method 5a4: Negative
[5]; strain BIOS-H6
  Efflux detection method 5a4: Negative
[5]; strain BIOS-H12
  Efflux detection method 5a4: Negative
[5]; strain BIOS-H13
  Efflux detection method 5a4: Negative
[5]; strain BIOS-H17
  Efflux detection method 5a4: Negative
[5]; strain BIOS-H20
  Efflux detection method 5a4: Negative
[5]; strain BIOS-H21
  Efflux detection method 5a4: Negative
[5]; strain BIOS-H22
  Efflux detection method 5a4: Negative
[5]; strain BIOS-H25
  Efflux detection method 5a4: Negative
[5]; strain BIOS-H28
  Efflux detection method 5a4: Negative
[5]; strain BIOS-H29
  Efflux detection method 5a4: Negative
[5]; strain BIOS-H30
  Efflux detection method 5a4: Negative
[5]; strain BIOS-H32
  Efflux detection method 5a4: Negative
[5]; strain BIOS-V21
  Efflux detection method 5a4: Negative
[5]; strain BIOS-V31
  Efflux detection method 5a4: Negative
[5]; strain BIOS-V60
  Efflux detection method 5a4: Negative
[5]; strain BIOS-V61
  Efflux detection method 5a4: Negative
[5]; strain BIOS-V62
  Efflux detection method 5a4: Negative
[5]; strain BIOS-V74
  Efflux detection method 5a4: Negative
[5]; strain BIOS-V75
  Efflux detection method 5a4: Negative
[5]; strain BIOS-V85
  Efflux detection method 5a4: Negative
[5]; strain BIOS-V118
  Efflux detection method 5a4: Negative
[5]; strain BIOS-V128
  Efflux detection method 5a4: Negative
[5]; strain BIOS-V147
  Efflux detection method 5a4: Negative
[5]; strain BIOS-V151
  Efflux detection method 5a4: Negative
[5]; strain BIOS-V156
  Efflux detection method 5a4: Negative
[5]; strain BIOS-V157
  Efflux detection method 5a4: Negative
[5]; strain BIOS-V158
  Efflux detection method 5a4: Negative
[5]; strain BIOS-V203
  Efflux detection method 5a4: Negative
[5]; strain BIOS-V245
  Efflux detection method 5a4: Negative
[5]; strain BIOS-V250
  Efflux detection method 5a4: Negative
[5]; strain BIOS-V257
  Efflux detection method 5a4: Negative
[5]; strain BIOS-V279
  Efflux detection method 5a4: Negative
[5]; strain BIOS-V295
  Efflux detection method 5a4: Negative
[5]; strain SA-1199
  Efflux detection method 5a4: Negative
[5]; strain SA-1199B
  Efflux detection method 5a4: Positive
[5]; strain SA-K1712
  Efflux detection method 5a4: Negative
[5]; strain SA-K1748
  Efflux detection method 5a4: Positive
[5]; strain SA-K1758
  Efflux detection method 5a4: Negative
[5]; strain SM 1
  Efflux detection method 5a4: Positive
[5]; strain SM 2
  Efflux detection method 5a4: Negative
[5]; strain SM 3
  Efflux detection method 5a4: Negative
[5]; strain SM 4
  Efflux detection method 5a4: Negative
[5]; strain SM 5
  Efflux detection method 5a4: Negative
[5]; strain SM 6
  Efflux detection method 5a4: Negative
[5]; strain SM 7
  Efflux detection method 5a4: Negative
[5]; strain SM 8
  Efflux detection method 5a4: Negative
[6]
  MIC difference between NorA wild‐type, overexpressing and deleted mutants: fourfold or greater difference
[7]
  genotoxicity (in words): no clear genotoxicity
[7]; [11]
  % PI (Proliferative Index): 99.2%
  MNC (micronucleated cells): 11 ± 1.4 per 1,000
[7]; 0.025 µg/ml, without S9 mix
  % PI (Proliferative Index): 99.8%
  MNC (micronucleated cells): 9 ± 1.4 per 1,000
[7]; [12]
  % PI (Proliferative Index): 94.6%
  MNC (micronucleated cells): 9 ± 2.1 per 1,000
[7]; 0.05 µg/ml, without S9 mix
  % PI (Proliferative Index): 88.2%
  MNC (micronucleated cells): 8.5 ± 0.7 per 1,000
[7]; [13]
  % PI (Proliferative Index): 92.1%
  MNC (micronucleated cells): 9.5 ± 0.7 per 1,000
[7]; 0.1 µg/ml, without S9 mix
  % PI (Proliferative Index): 78.5%
  MNC (micronucleated cells): 11 ± 1.4 per 1,000
[7]; [14]
  % PI (Proliferative Index): 89.2%
  MNC (micronucleated cells): 11.5 ± 2.1 per 1,000
[7]; 0.25 µg/ml, without S9 mix
  % PI (Proliferative Index): 56.1%
  MNC (micronucleated cells): 10 ± 1.4 per 1,000
[7]; 0.5 µg/ml, with UVA/visible Irradiation
  % PI (Proliferative Index): TOXIC
[7]; 0.5 µg/ml, without S9 mix
  % PI (Proliferative Index): TOXIC
  MNC (micronucleated cells): TOXIC
[7]; UVA/visible light exposure
  phototoxicity (in words): Slight phototoxicity
[8]
  fluorescence intensity (rank among derivatives): maximum fluorescence intensity
[9]
  MIC: 2 µg/mL
[10]
  MIC: 2 µg/mL

From publication PMC12023841, “Unlocking the Gates: A Novel Diagnostic Molecule for Quantifying Efflux Levels in Gram‐Positive Bacteria” (Advanced Healthcare Materials, 2025)
